{
  "source": "patent US10968214B2",
  "about": "“KRas G12C inhibitors” (Eli Lilly and Company, priority 2018, dated 2021)",
  "key": {"[1]": {"test_system": "pMEK in H358 xenograft tumors", "test": "In vivo target inhibition/PD, H358 xenograft, pMEK", "parameters": "species or system mouse", "details": "for inhibition at 30 mg/kg: 30 mg/kg single dose", "experimental": "(§1) To evaluate in vivo target inhibition and anti-tumor efficacy of a compound, Human lung cancer cells, H358 or H2122 are implanted into nude mice xenograft tumor models. Either H358 or H2122 cells (10×10^6 in a 1:1 Matrigel® mix, 0.2 mL total volume) are implanted by subcutaneous injection in hind leg of nude female mice (Harlan Laboratories). A total of 5 mice each group are used for efficacy study, and a total of 3-4 mice each group are used for target engagement and PD study. Treatment is initiated with oral administration (gavage) of a test compound or vehicle (20% Captisol®, 25 mM phosphate, pH 2.0 in 0.2 mL volume when the tumor size reaches approximately […]. Tumor growth and body weight are monitored over time to evaluate efficacy and signs of toxicity. Bidimensional measurements of tumors are performed twice a week and tumor volumes are calculated based on mid-axis length and mid-axis width. Tumor volume data are transformed to a log scale to equalize variance across time and treatment groups. The log volume data are analyzed with a two-way repeated measures analysis of variance by time and treatment using the mixed procedures in SAS software (version 8.2). The correlation model for the repeated measures is spatial power. Treated groups are compared to the control group at each time point. The mixed procedure is also used separately for each treatment group to calculate adjusted means and standard errors at each time point. Both analyses account for the autocorrelation within each animal. The adjusted means and standard errors are plotted for each treatment group versus time.\n(§2) For in vivo target inhibition and PD analysis, tumors are ground by mortar and pestle on dry ice and tumor fragments are added to 800 μL of lysis buffer containing 1% Triton X100, 25 mM Tris pH 7.5, 150 mM NaCl, 1 mM EDTA, and 1 mM EGTA with Halt protease and phosphatase inhibitor cocktail (Thermo Scientific, cat. no. 1861281) in lysing matrix D tubes (MP Biomedical®, cat. no. 6913-500) with one additional large bead (MP Biomedical® ¼″ ceramic sphere bead cat. no. 6540-412) per tube. Tumor fragments are homogenized in a Thermo Bio101® fast prep (FP120) at setting 4 for […] while cold for a total of 2 times. Lysates are spun at 14,000 rpm for 10 min at 4° C. to clarify. Protein estimation is done on the lysate supernatant using a BioRad Dc® protein assay and lysates are diluted in complete lysis/binding buffer from the Ras GTPase Chemi ELISA Kit® (Active Motif, cat. no. 52097). The active KRas ELISA was performed as follows: Glutathione-coated ELISA wells were incubated with diluted RAF1-GST in complete lysis/binding buffer for 1 hr at 4° C. with gentle agitation. Wells are washed 3 times with wash buffer and 100 μg of lysates are added to each well and incubated at RT for 1 hr with mild agitation. The wells are washed an additional 3 times, then primary antibody, diluted in antibody binding buffer, is added to each well. The plates are incubated for 1 hr. The wells are washed 3 more times before adding HRP-conjugated secondary antibody, diluted in antibody binding buffer, to each well. The plates are incubated at RT for 1 hr. ELISA wells are washed 4 times, chemiluminescent reagents is added and then luminescence is read. For pERK Meso Scale Discovery ELISA, 25 μg of protein containing 0.1% SDS is used; for pMEK Meso Scale Discovery ELISA, 50 μg of protein without SDS is used. Meso Scale Discovery Whole Cell Lysate Kits for pERK and pMEK are provided by Meso Scale Discovery.\nThe tumor samples are collected 4 hr post a single dose. The tumor lysates are prepared and the inhibition of pERK, pMEK, and active KRas is measured as described above.\nAfter a single dose, the tumor samples are harvested at 2, 4, 8, 12 and 24 hr post doing. The tumor lysates are prepared and the inhibition of pERK, pMEK, and active KRas is measured as described above."}, "[2]": {"test_system": "pMEK in H2122 xenograft tumors", "test": "In vivo target inhibition/PD, H2122 xenograft, pMEK", "details": "Mus musculus, NCI-H2122; for inhibition at 10 mg/kg: 10 mg/kg single dose", "experimental": "as §1, §2\nAfter a single dose, the tumor samples are harvested at different time points. The tumor lysates are prepared as described above. The inhibition of pERK, pMEK, and active KRas is measured as described above."}, "[3]": {"test_system": "EL2661 (PDX)", "test": "Anti-tumor growth activity, EL2661 lung PDX", "assay_type": "in vivo", "details": "28 Day, negative = regression"}},
  "note": "Where two headings read alike, the source gives them in different places.",
  "data": [
    {"smiles": "C=CC(=O)N1CCN(c2ncnc3c(F)c(-c4ccc(F)c5sc(N)nc45)c(Cl)cc23)CC1", "note": "[Example 1, 1-{4-[7-(2-Amino-7-fluoro-1,3-benzothiazol-4-yl)-6-chloro-8-fluoroquinazolin-4-yl]piperazin-1-yl}prop-2-en-1-one]", "values": [
      {"measurement": "% Inhibition pMEK", "setting": "[1]; H358 xenograft, time course, 10 mg/kg single dose, 24 hr, 10 mg/kg", "value": 30.4, "unit": "%"},
      {"measurement": "dose to achieve 50% target inhibition (TED50), pMEK", "setting": "[1]; H358 xenograft, single dose, 4 hr", "value": 11.19, "unit": "mg/kg"},
      {"measurement": "inhibition at 10 mg/kg", "setting": "[1]; Mus musculus, NCI-H358, 2 h, H358 xenograft, time course, 10 mg/kg single dose, 2 hr, read-out: % Inhibition pMEK", "value": 49.2, "unit": "%"},
      {"measurement": "inhibition at 30 mg/kg", "setting": "[1]; Mus musculus, NCI-H358, 2 h, H358 xenograft, time course, 2 hr, read-out: % Inhibition pMEK", "value": 81.4, "unit": "%"},
      {"measurement": "inhibition at 10 mg/kg", "setting": "[1]; Mus musculus, NCI-H358, 4 h, H358 xenograft, time course, 10 mg/kg single dose, 4 hr, read-out: % Inhibition pMEK", "value": 59.5, "unit": "%"},
      {"measurement": "inhibition at 30 mg/kg", "setting": "[1]; Mus musculus, NCI-H358, 4 h, H358 xenograft, time course, 4 hr, read-out: % Inhibition pMEK", "value": 89.3, "unit": "%"},
      {"measurement": "inhibition at 1 mg/kg", "setting": "[1]; Mus musculus, NCI-H358, 4 h, H358 xenograft, 1 mg/kg single dose, 4 hr post dose", "value": -6.2, "unit": "%"},
      {"measurement": "inhibition at 3 mg/kg", "setting": "[1]; Mus musculus, NCI-H358, 4 h, H358 xenograft, 3 mg/kg single dose, 4 hr post dose", "value": 11.1, "unit": "%"},
      {"measurement": "inhibition at 10 mg/kg", "setting": "[1]; Mus musculus, NCI-H358, 4 h, H358 xenograft, 10 mg/kg single dose, 4 hr post dose, read-out: % Inhibition pMEK", "value": 43.1, "unit": "%"},
      {"measurement": "inhibition at 30 mg/kg", "setting": "[1]; Mus musculus, NCI-H358, 4 h, H358 xenograft, 4 hr post dose, read-out: % Inhibition pMEK", "value": 82.1, "unit": "%"},
      {"measurement": "inhibition at 100 mg/kg", "setting": "[1]; Mus musculus, NCI-H358, 4 h, H358 xenograft, 100 mg/kg single dose, 4 hr post dose", "value": 85.8, "unit": "%"},
      {"measurement": "inhibition at 10 mg/kg", "setting": "[1]; Mus musculus, NCI-H358, 8 h, H358 xenograft, time course, 10 mg/kg single dose, 8 hr, read-out: % Inhibition pMEK", "value": 62.4, "unit": "%"},
      {"measurement": "inhibition at 30 mg/kg", "setting": "[1]; Mus musculus, NCI-H358, 8 h, H358 xenograft, time course, 8 hr, read-out: % Inhibition pMEK", "value": 81.8, "unit": "%"},
      {"measurement": "inhibition at 10 mg/kg", "setting": "[1]; Mus musculus, NCI-H358, 12 h, H358 xenograft, time course, 10 mg/kg single dose, 12 hr, read-out: % Inhibition pMEK", "value": 77.9, "unit": "%"},
      {"measurement": "inhibition at 30 mg/kg", "setting": "[1]; Mus musculus, NCI-H358, 12 h, H358 xenograft, time course, 12 hr, read-out: % Inhibition pMEK", "value": 65.8, "unit": "%"},
      {"measurement": "inhibition at 10 mg/kg", "setting": "[1]; Mus musculus, NCI-H358, 24 h, H358 xenograft, time course, 10 mg/kg single dose, 24 hr, read-out: % Inhibition pMEK", "value": 30, "unit": "%"},
      {"measurement": "inhibition at 30 mg/kg", "setting": "[1]; Mus musculus, NCI-H358, 24 h, H358 xenograft, time course, 24 hr, read-out: % Inhibition pMEK", "value": 35, "unit": "%"},
      {"measurement": "inhibition at 10 mg/kg", "setting": "[1]; Mus musculus, NCI-H358, H358 xenograft, 10 mg/kg single dose, from 2-12 hr, read-out: pMEK inhibition", "value": "49 to 78", "unit": "%"},
      {"measurement": "inhibition at 30 mg/kg", "setting": "[1]; Mus musculus, NCI-H358, H358 xenograft, from 2-24 hr, read-out: pMEK inhibition", "value": "35 to 89", "unit": "%"},
      {"measurement": "EC50", "setting": "[1]; Mus musculus, NCI-H358, H358 xenograft, plasma exposure by mass spectrum, read-out: plasma concentration to achieve 50% target inhibition (TEC50), pMEK", "value": 515, "unit": "nM"},
      {"measurement": "inhibition at 10 mg/kg", "setting": "[2]; H2122 xenograft, 2 hr, read-out: % Inhibition pMEK", "value": 45.9, "unit": "%"},
      {"measurement": "inhibition at 10 mg/kg", "setting": "[2]; H2122 xenograft, 4 hr, read-out: % Inhibition pMEK", "value": 60.4, "unit": "%"},
      {"measurement": "inhibition at 10 mg/kg", "setting": "[2]; H2122 xenograft, 8 hr, read-out: % Inhibition pMEK", "value": 25.7, "unit": "%"},
      {"measurement": "inhibition at 10 mg/kg", "setting": "[2]; H2122 xenograft, 12 hr, read-out: % Inhibition pMEK", "value": -0.4, "unit": "%"},
      {"measurement": "inhibition at 10 mg/kg", "setting": "[2]; H2122 xenograft, 24 hr, read-out: % Inhibition pMEK", "value": -8.4, "unit": "%"},
      {"measurement": "inhibition at 10 mg/kg", "setting": "[2]; H2122 xenograft, from 2-12 hr, read-out: pMEK inhibition", "value": "0 to 60", "unit": "%"},
      {"measurement": "inhibition at 30 mg/kg", "setting": "[2]; H2122 xenograft, 30 mg/kg single dose, 2 hr, read-out: % Inhibition pMEK", "value": 62.4, "unit": "%"},
      {"measurement": "inhibition at 30 mg/kg", "setting": "[2]; H2122 xenograft, 30 mg/kg single dose, 4 hr, read-out: % Inhibition pMEK", "value": 77.5, "unit": "%"},
      {"measurement": "inhibition at 30 mg/kg", "setting": "[2]; H2122 xenograft, 30 mg/kg single dose, 8 hr, read-out: % Inhibition pMEK", "value": 72.2, "unit": "%"},
      {"measurement": "inhibition at 30 mg/kg", "setting": "[2]; H2122 xenograft, 30 mg/kg single dose, 12 hr, read-out: % Inhibition pMEK", "value": 44.7, "unit": "%"},
      {"measurement": "inhibition at 30 mg/kg", "setting": "[2]; H2122 xenograft, 30 mg/kg single dose, 24 hr, read-out: % Inhibition pMEK", "value": -15.5, "unit": "%"},
      {"measurement": "inhibition at 100 mg/kg", "setting": "[2]; H2122 xenograft, 100 mg/kg single dose, 4 hr", "value": 79.7, "unit": "%"},
      {"measurement": "inhibition at 30 mg/kg", "setting": "[2]; read-out: pMEK inhibition", "value": "45 to 78", "unit": "%"},
      {"measurement": "Tumor Growth Inhibition (%) or Regression (−%)", "setting": "[3]; 10 mg/kg QD", "value": 46.5, "unit": "%"},
      {"measurement": "Tumor Growth Inhibition (%) or Regression (−%)", "setting": "[3]; 20 mg/kg QD", "value": 58.6, "unit": "%"},
      {"measurement": "Tumor Growth Inhibition (%) or Regression (−%)", "setting": "[3]; 30 mg/kg QD", "value": 97.6, "unit": "%"},
      {"measurement": "Tumor Growth Inhibition (%) or Regression (−%)", "setting": "[3]; 50 mg/kg QD", "value": "−8.6", "unit": "%"}
    ]}
  ]
}
